Target: human TRPA1 (Homo sapiens (Human), UniProt O75762)
Experiment: Measurement of TRPA1 antagonist activity (1): intracellular calcium increase
Assay type: cell-based
Conditions: 293T cells transfected with human TRPA1 expression plasmid; allylisothiocyanate 20 μM stimulation; intracellular calcium fluorescence; read-out: hTRPA1 IC50
Procedure, shortened: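 Calcium-flux readout of TRPA1 block: compound given 10 min before 20 μM (final) allylisothiocyanate, fluorescence tracked 5 min. Cells were 293T transiently expressing human TRPA1, dye-loaded 1 hr in HBSS, 20 mM HEPES, pH 7.2. Inhibition scaled between agonist-only and buffer-only responses; IC50 by sigmoid fitting.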

Chain of human TRPA1 (O75762 whole entry): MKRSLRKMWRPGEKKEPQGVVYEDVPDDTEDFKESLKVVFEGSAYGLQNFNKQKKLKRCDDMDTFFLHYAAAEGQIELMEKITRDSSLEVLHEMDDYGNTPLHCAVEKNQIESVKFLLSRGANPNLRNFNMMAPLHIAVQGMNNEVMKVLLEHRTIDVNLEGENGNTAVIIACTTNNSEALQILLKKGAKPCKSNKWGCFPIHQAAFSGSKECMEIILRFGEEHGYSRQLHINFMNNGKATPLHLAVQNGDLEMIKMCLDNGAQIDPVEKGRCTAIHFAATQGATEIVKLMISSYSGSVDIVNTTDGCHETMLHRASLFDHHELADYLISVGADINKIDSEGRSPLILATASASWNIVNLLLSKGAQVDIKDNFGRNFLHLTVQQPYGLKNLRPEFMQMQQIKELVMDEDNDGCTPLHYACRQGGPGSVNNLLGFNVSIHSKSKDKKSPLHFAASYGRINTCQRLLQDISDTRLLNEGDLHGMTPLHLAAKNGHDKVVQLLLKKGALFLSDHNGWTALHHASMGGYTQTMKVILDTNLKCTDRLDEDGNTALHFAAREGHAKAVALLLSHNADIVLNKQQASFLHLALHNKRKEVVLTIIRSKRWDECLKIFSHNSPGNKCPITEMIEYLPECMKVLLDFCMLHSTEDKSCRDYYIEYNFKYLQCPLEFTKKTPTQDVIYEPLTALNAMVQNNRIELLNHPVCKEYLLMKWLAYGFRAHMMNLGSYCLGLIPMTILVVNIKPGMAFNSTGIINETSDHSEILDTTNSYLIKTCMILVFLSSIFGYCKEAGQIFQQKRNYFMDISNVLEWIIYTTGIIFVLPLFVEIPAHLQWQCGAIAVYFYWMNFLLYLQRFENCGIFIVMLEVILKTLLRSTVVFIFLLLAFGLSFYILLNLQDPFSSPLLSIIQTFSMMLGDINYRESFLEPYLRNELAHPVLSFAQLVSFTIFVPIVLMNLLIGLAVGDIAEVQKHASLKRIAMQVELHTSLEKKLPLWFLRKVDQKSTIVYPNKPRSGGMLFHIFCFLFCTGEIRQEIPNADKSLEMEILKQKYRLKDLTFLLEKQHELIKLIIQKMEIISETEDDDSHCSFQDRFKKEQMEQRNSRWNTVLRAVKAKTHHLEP

Row | Structure (SMILES) | IC50
1 | CN(C)c1ccc(-c2cccc(CNC(=O)[C@@H]3CCCN3S(=O)(=O)c3cc4cc(F)ccc4o3)c2)cn1 [Example 159, (2S)-N-[[3-[6-(dimethylamino)-3-pyridyl]phenyl]methyl]-1-(5-fluorobenzofuran-2-yl)sulfonyl-pyrrolidine-2-carboxamide] | 6.2 nM
2 | C[C@H](NS(=O)(=O)c1cc2ccccc2o1)C(=O)NCc1ccnc(-c2ccc(C(F)(F)F)cc2)c1 [Example 103, (2S)-2-(benzofuran-2-ylsulfonylamino)-N-[[2-[4-(trifluoromethyl)phenyl]-4-pyridyl]methyl]propanamide] | 56 nM
3 | O=C(NCc1cccc(OCc2cncc(C(F)(F)F)c2)c1)[C@@H]1CCCN1S(=O)(=O)c1cc2ccccc2o1 [Example 9, (2S)-1-(benzofuran-2-ylsulfonyl)-N-[[3-[[5-(trifluoromethyl)-3-pyridyl]methoxy]phenyl]-methyl]pyrrolidine-2-carboxamide] | 7.6 nM
4 | O=C(NCc1ccnc(-c2ccccc2)c1)[C@@H]1CCCN1S(=O)(=O)c1cc2ccccc2o1 [Example 112, (2S)-1-(benzofuran-2-ylsulfonyl)-N-[(2-phenyl-4-pyridyl)methyl]pyrrolidine-2-carboxamide] | 270 nM
5 | O=C(NCc1cccc(OCc2cccs2)c1)[C@@H]1CCCN1S(=O)(=O)c1cc2ccccc2o1 [Example 5, (2S)-1-(benzofuran-2-ylsulfonyl)-N-[[3-(2-thienylmethoxy)phenyl]methyl]pyrrolidine-2-carboxamide] | 12 nM
6 | CN(C)c1cccc(COc2cccc(CNC(=O)[C@@H]3CCCN3S(=O)(=O)c3cc4cc(F)ccc4o3)c2)n1 [Example 26, (2S)-N-[[3-[[6-(dimethylamino)-2-pyridyl]methoxy]phenyl]-methyl]-1-(5-fluorobenzofuran-2-yl)sulfonyl-pyrrolidine-2-carboxamide] | 23 nM
7 | O=C(NCc1cccc(OCc2ccc(C(F)(F)F)cc2)c1)[C@@H]1C=CCN1S(=O)(=O)c1cc2ccccc2o1 [Example 44, (2S)-1-(benzofuran-2-ylsulfonyl)-N-[[3-[[4-(trifluoromethyl)phenyl]methoxy]-phenyl]methyl]-2,5-dihydropyrrole-2-carboxamide] | 1.7 nM
8 | O=C(NCc1cccc(OCc2ccc(C(F)(F)F)cc2)c1)[C@@H]1CCN1S(=O)(=O)c1cc2ccccc2o1 [Example 48, (2S)-1-(benzofuran-2-ylsulfonyl)-N-[[3-[[4-(trifluoromethyl)phenyl]methoxy]-phenyl]methyl]azetidine-2-carboxamide] | 6.9 nM
9 | O=C(NCc1ccnc(-c2ccc(F)cc2O)c1)[C@@H]1CCCN1S(=O)(=O)c1cc2cc(F)ccc2o1 [Example 136, (2S)-1-(5-fluorobenzofuran-2-yl)sulfonyl-N-[[2-(4-fluoro-2-hydroxy-phenyl)-4-pyridyl]methyl]pyrrolidine-2-carboxamide] | 13 nM
10 | O=C(NCc1cccc(OCc2ccc(C(F)(F)F)cc2)c1)[C@@H]1CC(F)(F)CN1S(=O)(=O)c1cc2ccccc2o1 [Example 47, (2S)-1-(benzofuran-2-ylsulfonyl)-4,4-difluoro-N-[[3-[[4-(trifluoromethyl)phenyl]methoxy]-phenyl]methyl]pyrrolidine-2-carboxamide] | 24 nM
11 | CN(C)c1ncc(-c2ccc(F)c(CNC(=O)[C@@H]3CCCN3S(=O)(=O)c3cc4ccccc4o3)c2)cn1 [Example 174, (2S)-1-(benzofuran-2-ylsulfonyl)-N-[[5-[2-(dimethylamino)pyrimidin-5-yl]-2-fluoro-phenyl]methyl]pyrrolidine-2-carboxamide] | 29 nM
12 | N#Cc1ccc(-c2cc(CNC(=O)[C@@H]3CCCN3S(=O)(=O)c3cc4cc(F)ccc4o3)ccn2)cc1 [Example 132, (2S)-N-[[2-(4-cyanophenyl)-4-pyridyl]methyl]-1-(5-fluorobenzofuran-2-yl)sulfonyl-pyrrolidine-2-carboxamide] | 7.6 nM
13 | O=C(NCc1ccnc(-c2ccc(C(F)(F)F)nc2)c1)[C@@H]1CCCN1S(=O)(=O)c1cc2ccccc2o1 [Example 124, (2S)-1-(benzofuran-2-ylsulfonyl)-N-[[2-[6-(trifluoromethyl)-3-pyridyl]-4-pyridyl]methyl]pyrrolidine-2-carboxamide] | 3.4 nM

Next, values leading:

Row | IC50 | Structure (SMILES)
14 | 7.5 nM | O=C(NCc1cccc(/C=C/c2ccc(C(F)(F)F)cc2)c1)[C@@H]1CCCN1S(=O)(=O)c1cc2cc(F)ccc2o1 [Example 297, (2S)-1-(5-fluorobenzofuran-2-yl)sulfonyl-N-[[3-[(E)-2-[4-(trifluoromethyl)phenyl]vinyl]phenyl]methyl]pyrrolidine-2-carboxamide]
15 | 42 nM | C[C@H](NS(=O)(=O)c1cc2cnccc2o1)C(=O)NCc1ccnc(-c2ccc(C(F)(F)F)cc2O)c1 [Example 303, (2S)-2-(furo[3,2-c]pyridin-2-ylsulfonylamino)-N-[[2-[2-hydroxy-4-(trifluoromethyl)phenyl]-4-pyridyl]methyl]propanamide]
16 | 4.3 nM | O=C(NCc1cccc(Oc2ccc(C(F)(F)F)cc2)c1)[C@@H]1CCCN1S(=O)(=O)c1cc2cnccc2o1 [Example 269, (2S)-1-furo[3,2-c]pyridin-2-ylsulfonyl-N-[[3-[4-(trifluoromethyl)phenoxy]-phenyl]methyl]pyrrolidine-2-carboxamide]
17 | 20 nM | C[C@H](NS(=O)(=O)c1cc2cc(F)ccc2o1)C(=O)NCc1cccc(-c2ccc(C(F)(F)F)nn2)c1 [Example 235, (2S)-2-[(5-fluorobenzofuran-2-yl)sulfonylamino]-N-[[3-[6-(trifluoromethyl)pyridazin-3-yl]phenyl]methyl]propanamide]
18 | 21 nM | C[C@H](NS(=O)(=O)c1cc2cc(F)ccc2o1)C(=O)NCc1ccnc(-c2ccc(C(F)(F)F)cc2O)c1 [Example 181, (2S)-2-[(5-fluorobenzofuran-2-yl)sulfonylamino]-N-[[2-[2-hydroxy-4-(trifluoromethyl)phenyl]-4-pyridyl]methyl]propanamide]
19 | 4.6 nM | C#CCN([C@@H](C)C(=O)NCc1ccnc(-c2ccc(C(F)(F)F)nc2)c1)S(=O)(=O)c1cc2cc(F)ccc2o1 [Example 314, (2S)-2-[(5-fluorobenzofuran-2-yl)sulfonyl-prop-2-ynyl-amino]-N-[[2-[6-(trifluoromethyl)-3-pyridyl]-4-pyridyl]methyl]propanamide]
20 | 11 nM | O=C(NCc1cccc(COc2ccc(C(F)(F)F)cc2)c1)[C@@H]1CCCN1S(=O)(=O)c1cc2ccccc2o1 [Example 298, (2S)-1-(benzofuran-2-ylsulfonyl)-N-[[3-[[4-(trifluoromethyl)phenoxy]methyl]phenyl]methyl]pyrrolidine-2-carboxamide]
21 | 14 nM | C[C@H](NS(=O)(=O)c1cc2cc(F)ccc2o1)C(=O)NCc1ccc(O)c(-c2ccc(C(F)(F)F)cn2)c1 [Example 252, (2S)-2-[(5-fluorobenzofuran-2-yl)sulfonylamino]-N-[[4-hydroxy-3-[5-(trifluoromethyl)-2-pyridyl]-phenyl]methyl]propanamide]
22 | 71 nM | O=C(NCc1cccc(OCc2ccc(C(F)(F)F)cc2)c1)[C@@H]1CC=CCN1S(=O)(=O)c1cc2ccccc2o1 [Example 187, (2S)-1-(benzofuran-2-ylsulfonyl)-N-[[3-[[4-(trifluoromethyl)phenyl]methoxy]phenyl]methyl]-3,6-dihydro-2H-pyridine-2-carboxamide]
23 | 42 nM | C[C@H](NS(=O)(=O)c1cc2cc(F)ccc2o1)C(=O)NCc1ccnc(-c2cnc(C(F)(F)F)nc2)c1 [Example 238, (2S)-2-[(5-fluorobenzofuran-2-yl)sulfonylamino]-N-[[2-[2-(trifluoromethyl)pyrimidin-5-yl]-4-pyridyl]methyl]propanamide]
24 | 250 nM | O=C(NCc1cc(C2=CCCCC2)ccn1)[C@@H]1CCCN1S(=O)(=O)c1cc2ccccc2o1 [Example 283, (2S)-1-(benzofuran-2-ylsulfonyl)-N-[[4-(cyclohexen-1-yl)-2-pyridyl]methyl]pyrrolidine-2-carboxamide]
25 | 6.6 nM | O=C(NCc1ccnc(-c2ccc(C(F)(F)F)cn2)c1)[C@@H]1CCCN1S(=O)(=O)c1cc2cc(F)ccc2o1 [Example 221, (2S)-1-(5-fluorobenzofuran-2-yl)sulfonyl-N-[[2-[5-(trifluoromethyl)-2-pyridyl]-4-pyridyl]methyl]pyrrolidine-2-carboxamide]
26 | 44 nM | C[C@H](NS(=O)(=O)c1cc2cc(F)ccc2o1)C(=O)NCc1cc(-c2ccc(C(F)(F)F)nn2)ccn1 [Example 244, (2S)-2-[(5-fluorobenzofuran-2-yl)sulfonylamino]-N-[[4-[6-(trifluoromethyl)pyridazin-3-yl]-2-pyridyl]methyl]propanamide]
27 | 69 nM | C[C@H](NS(=O)(=O)c1cc2ccccc2o1)C(=O)NCc1ccnc(-c2ccc(C(F)(F)F)cc2O)c1 [Example 180, (2S)-2-(benzofuran-2-ylsulfonylamino)-N-[[2-[2-hydroxy-4-(trifluoromethyl)phenyl]-4-pyridyl]methyl]propanamide]
28 | 22 nM | CN(C)C(=O)c1ccc(CNC(=O)[C@@H]2CCCN2S(=O)(=O)c2cc3ccccc3o2)cc1-c1ccc(C(F)(F)F)cc1 [Example 337, (2S)-1-(benzofuran-2-ylsulfonyl)-N-[[4-(dimethylcarbamoyl)-3-[4-(trifluoromethyl)phenyl]-phenyl]methyl]pyrrolidine-2-carboxamide]
29 | 270 nM | C[C@H](NS(=O)(=O)c1cc2cc(F)ccc2o1)C(=O)NCc1ccnc(-c2ccc(C(F)(F)F)cn2)c1 [Example 237, (2S)-2-[(5-fluorobenzofuran-2-yl)sulfonylamino]-N-[[2-[5-(trifluoromethyl)-2-pyridyl]-4-pyridyl]methyl]propanamide]
30 | 14 nM | C[C@H](NS(=O)(=O)c1cc2ccccc2o1)C(=O)NCc1cc(-c2ccc(OC(F)(F)F)cc2)ncn1 [Example 231, (2S)-2-(benzofuran-2-ylsulfonylamino)-N-[[6-[4-(trifluoromethoxy)phenyl]-pyrimidin-4-yl]methyl]propanamide]

Reference: patent publication US10626112B2, “Heterocyclic sulfonamide derivative and medicine comprising same” (EA PHARMA CO., LTD., priority 2014, dated 2020)
